Assay [1] has as its system SW620/Ad300 colorectal cancer cells. Also on record: method as in PMID 9187269, PMID 34977876. To be noted: MDR SW620/Ad300 cells; cited from earlier work.
A further assay has as its system 518A2 melanoma cells. To be noted: positive control; ref Köhler et al.[20]; cited from earlier work.
Assay [2] concerns HCT-116 p53-/- colon carcinoma cells. To be noted: positive control; ref Köhler et al.[20]; cited from earlier work.
Another assay concerns U-87 glioblastoma cells. To be noted: positive control; ref Köhler et al.[20]; read-out: IC50 U87; cited from earlier work.
Assay [3] relates to HeLa cervix carcinoma cells. More on the design: method as in Köhler et al.[20]. To be noted: positive control; ref Köhler et al.[20]; cited from earlier work.
The test system of assay [4] is KB-V1^Vbl cervix carcinoma cells. To be noted: without verapamil; ref Köhler et al.[20]; cited from earlier work.
The test system of assay [5] is HDFa adult human dermal fibroblasts. More on the design: method as in Köhler et al.[20]. To be noted: non-malignant cells; ref Köhler et al.[20]; cited from earlier work.
In assay [6] the test system is HT-29 colon carcinoma cells. To be noted: positive control; ref Köhler et al.[20]; cited from earlier work.
Assay [7] has as its system tested cancer and hybrid cell lines. In words: MTT assay, average over all tested cancer and hybrid cell lines. The settings on record: for IC50: Homo sapiens. In general terms: Formazan colour is commonly taken as a measure of viable cells.
Method: An 3-(4, 5-dimethylthiazol-2-yl)-2, 5-diphenyl tetrazolium bromid (MTT) assay was used for antiproliferative studies. Cancer cells (5 × 10^4 cells/mL, 100 μL/well) were placed in 96-well plates (10 × 10^4 cells/mL for HDFA and U87 cells), and the cells were incubated for 24 h at 5% CO2 and 95% humidity. Then, cells were treated with test compounds (at various concentrations) or solely with DMSO as a negative control for 72 h. Then, 12.5 μL of a 0.5% MTT solution in phosphate-buffered saline (PBS) was added to the cells, followed by incubation for 2 h at 37 °C. After centrifugation of the plates (300 × g, 5 min, 4 °C), the medium was discarded, and 25 μL of DMSO containing 10% SDS and 0.6% acetic acid was added, followed by incubation at 37 °C for at least 1 h. Formazan absorbance at λ = 570 nm was measured using a Tecan infinite F200 microplate reader and corrected for the background (λ = 630 nm). The 50% inhibitory concentration (IC50) values were calculated from dose-response curves (means ± SD, four independent experiments) compared to DMSO-treated control cells, which were set to 100%. GraphPad Prism 9 was used for curve-fitting.
The selectivity index (SI) was calculated as a measure of selectivity toward cancer cells compared to non-malignant cells.
Assay [8] deals with HCT-116 colon carcinoma cells. To be noted: positive control; ref Köhler et al.[20]; cited from earlier work.
The subject of assay [9] is EA.hy926 endothelial hybrid cells. To be noted: positive control; ref Köhler et al.[20]; cited from earlier work.
The test system of assay [10] is MCF-7 breast carcinoma cells. The settings on record: positive control; ref Köhler et al.[20]; cited from earlier work.
In a further assay the target is T1, MYB (Homo sapiens, UniProt P10242, K503R/K527R).
T1 construct: expressed in transfected cells; host or cells: HEK-293 (HEK-MYB-Luc reporter cell line)
Kind of assay: Luciferase-dependent MYB activity assay (HEK-MYB-Luc reporter cells). Format: cell-based. To be noted: HEK-293 reporter cells, 16 h; read-out: IC50 inhibition of MYB activity. The procedure:
Compounds were tested using the HEK-MYB-Luc reporter cell line, which allows a doxycycline-dependent induction of MYB expression and harbors an MYB-dependent luciferase reporter plasmid, as previously described. After 16 h of substance treatment (0.0001-3 µM), luciferase activities were analyzed as described.

Like-named read-outs stand apart in the source and are kept apart here.

Broadly, the IC50 is the point on the concentration scale where inhibition reaches its midpoint.

T1 sequence (P10242 whole entry K503R/K527R): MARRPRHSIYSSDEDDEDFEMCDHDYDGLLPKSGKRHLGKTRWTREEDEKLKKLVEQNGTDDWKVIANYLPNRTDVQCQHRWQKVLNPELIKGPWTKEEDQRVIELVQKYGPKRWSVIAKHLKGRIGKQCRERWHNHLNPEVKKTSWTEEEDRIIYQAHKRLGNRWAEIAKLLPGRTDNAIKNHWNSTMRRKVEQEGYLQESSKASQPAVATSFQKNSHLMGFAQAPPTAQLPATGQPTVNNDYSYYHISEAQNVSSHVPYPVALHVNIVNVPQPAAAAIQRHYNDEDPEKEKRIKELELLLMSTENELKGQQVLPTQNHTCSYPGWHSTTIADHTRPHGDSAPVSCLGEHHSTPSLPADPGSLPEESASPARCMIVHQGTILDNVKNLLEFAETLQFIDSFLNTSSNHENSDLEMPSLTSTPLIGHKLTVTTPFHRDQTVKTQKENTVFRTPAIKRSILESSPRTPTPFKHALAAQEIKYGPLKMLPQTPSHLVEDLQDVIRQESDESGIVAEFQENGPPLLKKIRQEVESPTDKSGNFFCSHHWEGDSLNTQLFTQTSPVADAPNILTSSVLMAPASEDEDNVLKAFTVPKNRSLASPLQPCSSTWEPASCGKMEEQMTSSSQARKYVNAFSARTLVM

Regarding `CC(=O)O[C@H]1C(=O)[C@@]2(C)[C@H]([C@H](OC(=O)c3ccccc3)[C@]3(O)C[C@H](OC(=O)[C@H](O)[C@@H](NC(=O)c4ccccc4)c4ccccc4)C(C)=C1C3(C)C)[C@]1(OC(C)=O)CO[C@@H]1C[C@@H]2O` [paclitaxel], the “reduction of effective concentration by treatment with P-gp modulators” value in [1] is given as 100 fold.
Turning to `N#CC1=C(N)Oc2c(ccc3ccccc23)C1c1cccc([N+](=O)[O-])c1` (stereo not shown) [1A, 2-amino-4-(3-nitrophenyl)-4H-naphtho(1,2-b)pyran-3-carbonitrile], the IC50 was 10 ± 1 nM in the assay with 518A2 melanoma cells; 30 ± 3 nM in assay [2]; 70 ± 9 nM in the assay with U-87 glioblastoma cells; 40 ± 2 nM in assay [3]; 20 ± 2 nM in [4]; 40700 nM in [5]. Besides, the IC50 in [6] was 30 ± 3 nM; in assay [7] (read-out: Average IC50 value of the tested cancer and hybrid cell lines (Ø IC50), average of all cell lines of Table 2), 52 nM; in assay [8], 8 ± 0.7 nM; in assay [9] it was 30 ± 1 nM; in assay [10], 200 ± 20 nM. Also, the “SI (IC50 HDFa cells/IC50 tumor cell average)” value in assay [7] (selectivity index, HDFa vs tumor cell average) came to 786.
For the compound `CC[C@]1(O)C[C@@H]2CN(CCc3c([nH]c4ccccc34)[C@@](C(=O)OC)(c3cc4c(cc3OC)N(C)[C@H]3[C@@](O)(C(=O)OC)[C@H](OC(C)=O)[C@]5(CC)C=CCN6CC[C@]43[C@@H]65)C2)C1` [vinblastine], in assay [1], the “reduction of effective concentration by treatment with P-gp modulators” value is 351 fold.
`COc1cc(C2C(C#N)=C(N)Oc3c2ccc2ccccc32)cc(OC)c1OC` (stereo not shown) [1B]: the IC50 was 30 ± 0.1 nM with 518A2 melanoma cells; 30 ± 2 nM in assay [2]; 5 ± 0.2 nM in the assay with U-87 glioblastoma cells; 10 ± 1 nM in assay [3]; 30 ± 1 nM in assay [4]; 300 ± 40 nM in [6]. Moreover, the IC50 was 53 nM in assay [7] (read-out: Average IC50 value of the tested cancer and hybrid cell lines (Ø IC50)); 20 ± 1.9 nM in assay [8]; 9.07 nM on MYB; 20 ± 1 nM in assay [9]; 34 ± 2.5 nM in assay [10].

The values above are taken from PMC10099595, “Multimodal 4-arylchromene derivatives with microtubule-destabilizing, anti-angiogenic, and MYB-inhibitory activities” (Cancer Drug Resistance, 2023).
